Experimental data: article PMC4245888 (Frontiers in Pharmacology, 2014)

What was measured:
[1] = cited from earlier work; for terminal elimination half-life: the drug and its metabolite, ref Ezzet et al., 2001
[2] = Pharmacokinetics of total EZE in plasma, single-dose three-period crossover study, EZE alone vs ATO–EZE combination; type: in vivo, human; settings: EZE 10 mg coadministered with ATO 80 mg; bioequivalence-based hypothesis
Procedure: Thirty six healthy Mexicans volunteers of both gender who were between the ages of 18 and 45 (mean ± SEM: 24.71 ± 0.03 years), had heights between 140.0 and 190.0 cm (163.0 ± 0.005 cm), and weighed between 43.50 and 79.50 kg (62.15 ± 1.9 kg) were enrolled in the study. The study protocol was approved by an independent ethics committee as well as by the regulatory authority in Mexico (COFEPRIS), and it was conducted following the ethical principles described in the Declaration of Helsinki. […]
For the determination of both molecules were developed an analytical method, where only once plasma processing is used to obtain both molecules, but the quantification of the analytes was performed on two separate injections ATO in positive electrospray ionization ESI (+) mode and EZE in negative electrospray ionization ESI (-) mode. […]
Chromatographic analysis was performed on UPLC-MS/MS system consisting of Acquity UPLC coupled to a tandem mass spectrometry detector XEVO-TQS (Waters, USA) and Acquity UPLC BEH C18 (1.7 μm, 2.1 × 100 mm) column (Waters, USA). […] MRM data were acquired and analyzed through MassLynx software (Waters, USA). […]

[3] = system: major drug metabolizing enzymes (CYP450); design: method as in van Heek and Davis, 2002; settings: ref van Heek and Davis, 2002; cited from earlier work
[4] = system: cholesterol and triglyceride levels; settings: cited from earlier work
[5] = cited from earlier work
[6] = dose of 10 mg, ref Kosoglou et al. (2002)
[7] = hyperlipidemic patients, dose dependent, ref Nawrocki et al., 1995, Heinonen et al., 1996
[8] = oral administration, ref van Heek et al., 2000, Patrick et al., 2002, Malloy and Kane, 2007, Mahley and Bersot, 2008

Row | SMILES | Cmax of EZE [1, 6] [ng/mL] | area under the curve to the end point of EZE [1, 6] [ng·h/mL] | fraction biotransformed into glucuronide active metabolite ([1]; ref Kosoglou et al. (2002)) [%] | terminal elimination half-life [1] [h] | pharmacokinetic drug–drug interaction (on EZE) [2] | effect on the activity of major drug metabolizing enzymes (CYP450) [3] | reduction of colesterol and triglycerides, significantly larger than equivalent doses of other statin drugs ([4]; P ≤ 0.01, ref Jones et al., 1998) | lowering of cholesterol levels [4, 7] | lowering of triglyceride levels [4, 7] | intra-subject variability ([5]; ref European Medicines Agency [EMEA] (2010)) [%] | share of circulating inhibitory activity for HMG-CoA reductase attributed to active metabolites (ortho- and parahydroxy ATO) ([5]; ref Pfizer Inc. Lipitor®, 2009) | time of first peak blood level (dual peak, enterohepatic recirculation) [1, 8] [h] | time of second peak blood level (dual peak, enterohepatic recirculation) [1, 8] [h]
1 | O=C1[C@H](CC[C@H](O)c2ccc(F)cc2)[C@@H](c2ccc(O)cc2)N1c1ccc(F)cc1 [EZE, Ezetimibe] | 64.2 to 73.6 | 440 to 722 | > 80 | 20 to 30 | no relevant pharmacokinetic drug–drug interaction | no effect | – | – | – | – | – | – | –
2 | CC(C)c1c(C(=O)Nc2ccccc2)c(-c2ccccc2)c(-c2ccc(F)cc2)n1CC[C@@H](O)C[C@@H](O)CC(=O)O [ATO, Atorvastatin] | – | – | – | – | – | – | 38–51% | 25–61% | 9–61% | > 30 | Approximately 70% | – | –
3 | O=C(O)[C@H]1O[C@@H](Oc2ccc([C@@H]3[C@@H](CC[C@H](O)c4ccc(F)cc4)C(=O)N3c3ccc(F)cc3)cc2)[C@H](O)[C@@H](O)[C@@H]1O [EZE-G] | – | – | – | 20 to 30 | – | – | – | – | – | – | – | 4 to 6 | 10 to 12
